Laboratory results: patent publication US20110053996A1, “Use of phenyltriazoles for controlling insects and spider mites by watering, droplet application or dip application or by treating seed” (Bayer CropScience AG, priority 2009, published 2011)

Columns and labels:
Tetranychus urticae = Tetranychus urticae test on bush beans; drench application; assay type: in vivo; conditions: bush bean plants, 0.25 mg of ai/plant, 14 days after infestation
Procedure: (§1) To produce a suitable preparation of active compound, 1 part by weight of active compound is mixed with the stated amounts of solvent and emulsifier, and the concentrate is diluted with water to the desired concentration.
Bush bean plants (Phaseolus vulgaris) are watered with the respective product solution. The stated concentration refers to the amount of active compound per plant. After about 1 week, the treated plants are infested with the greenhouse red spider mite (Tetranychus urticae).
After 2 weeks, the effect in % is determined. 100% means that all of the spider mites have been killed; 0% means that none of the spider mites have been killed.

Liriomyza trifolii = Liriomyza trifolii test on bush beans; drench application; assay type: in vivo; conditions: bush bean plants, 0.5 mg of ai/plant, 14 days after infestation
Procedure: as §1
Bush bean plants (Phaseolus vulgaris) are watered with the respective product solution. The stated concentration refers to the amount of active compound per plant. After about 1 week, the treated plants are infested with the leaf-mining fly (Liriomyza trifolii).
After 2 weeks, the effect in % is determined. 100% means that all of the leaf-mining flies have been killed; 0% means that none of the leaf-mining flies have been killed.

Cc1cc(F)c(-n2nc(C(F)(F)F)nc2N)cc1[S+]([O-])CC(F)(F)F (centres unmarked) [(I-4)]
% Activity (according to Abbott) (Tetranychus urticae): 100%
% Activity (according to Abbott) (Liriomyza trifolii): 100%
